Measurements reported in publication PMC3441526, “KCN1, a Novel Synthetic Sulfonamide Anticancer Agent: In Vitro and In Vivo Anti-Pancreatic Cancer Activities and Preclinical Pharmacology” (PLoS ONE, 2012).
Where two headings read alike, the source gives them in different places.

How the values were obtained:
[1] = Plasma stability determination; type: in vitro ADME, mouse
Procedure: The validated HPLC method was used to evaluate the stability of KCN1 in mouse plasma at 37°C, 4°C and −80°C. KCN1 was dissolved in methanol and diluted with plasma to achieve the two concentrations used in the study: 1 and 10 µM. At the designated time points, samples were removed and extracted using the aforementioned procedure. KCN1 concentrations were quantified and, to illustrate the in vitro stability of the compound, expressed as percentages of the initial concentration.

[2] = Pharmacokinetic study in mice; type: in vivo, nude mice (nu/nu); settings: for dose recovered as parental KCN1 from urine: first 24 hr
Procedure: (§1) Female CD-1 and nude mice were administered 35 mg/kg body weight of KCN1 as either a single intravenous injection via a tail vein or via an intraperitoneal injection. At selected time points after dosing, groups of three mice/time point were subjected to a retro-orbital bleed. The blood was collected into heparinized tubes, and plasma was separated by centrifugation. Tissues (brain, skeletal muscle, kidneys, liver, spleen, and heart) were collected by necropsy. Urine and feces were collected on ice for 24 h from mice housed in metabolic cages (n = 3/study). The collection containers and cages were washed twice with 0.9% saline solution, and each urine collection and each wash was analyzed separately, then values were added together for each mouse to determine the total KCN1 present in urine during the collection period. Pharmacokinetic values were derived using Phoenix WinNonlin Version 6.0 (Mountain View, CA).
An HPLC protocol was developed to detect KCN1 in different matrices (plasma, urine or tissue homogenates) using an Agilent 1120 instrument. KCN1 was separated on a Zorbax SB-C18 (5 µm, 150 × 4.6 mm) analytical column with a Zorbax Reliance Cartridge Guard Column (SB-C18), and the eluate was monitored by UV at 254 nm. The mobile phase was composed of “A” (methanol +0.1% Et3N)-“B” (ddH2O+0.1% Et3N) (80∶20, v/v). Prior to application, the mobile phase was filtered and degassed using a Millipore glass filter system with a nylon membrane (0.2 µm). The peaks for KCN1 were used to establish standard curves and for quantitative analysis of samples. Quantification of the compound was achieved by determination of the peak area at the retention time of approximately 4.4 minutes.
Plasma (100 µL) was mixed with 200 µL of methanol, vortexed, and centrifuged to remove precipitated proteins. The supernatant was evaporated to dryness under a stream of air. The residue was dissolved in 100 µL of the mobile phase, and 10 µL was injected onto the HPLC system for analysis. Weighed tissues were homogenized in two to five volumes of PBS (based on the weight of the tissue samples), and portions of the homogenates were processed in the same manner as the plasma samples.

[3] = Pharmacokinetic study, faecal recovery and late detection (strain not stated); type: in vivo, mice; settings: for initial dose of parental compound recovered in feces: mice
Procedure: as §1

[4] = nude mice, 35 mg/kg, either route

COc1ccc(S(=O)(=O)N(Cc2ccc3c(c2)C=CC(C)(C)O3)c2ccccc2)cc1OC [KCN1, 3,4-dimethoxy-N-[(2,2-dimethyl-2H-chromen-6-yl)methyl]-N-phenylbenzenesulfonamide]
compound remaining in mouse plasma ([1]; 4°C, at least 24 hr): more than 90%
compound remaining in mouse plasma ([1]; 37°C, 8 hr, 1 µM): more than 80%
compound remaining in mouse plasma ([1]; 37°C, 8 hr, 10 µM): more than 80%
compound remaining in mouse plasma ([1]; −80°C, up to 4 wks): more than 92%
Tmax ([2]; female, nude (nu/nu), mouse, plasma, ip, nude mice, I.P. 35 mg/kg, read-out: time of maximum plasma level): 2 h
concentration at 6 h ([2]; female, nude (nu/nu), mouse, plasma, iv, nude mice, I.V. 35 mg/kg, 6 h after dosing): < 300 ng/mL
concentration at 5 min ([2]; female, nude (nu/nu), mouse, plasma, iv, nude mice, bolus I.V. 35 mg/kg, 5 minutes): 5190 ng/mL
half-life ([2]; female, nude (nu/nu), mouse, Brain, Nu/nu, IP 35 mg/kg): 0.95 h
Tmax ([2]; female, nude (nu/nu), mouse, Brain, Nu/nu, IP 35 mg/kg, read-out: Tmax): 1 h
half-life ([2]; female, nude (nu/nu), mouse, Brain, Nu/nu, IV 35 mg/kg): 3.38 h
Tmax ([2]; female, nude (nu/nu), mouse, Brain, Nu/nu, IV 35 mg/kg, read-out: Tmax): 0.08 h
half-life ([2]; female, nude (nu/nu), mouse, Heart, Nu/nu, IP 35 mg/kg): 1.22 h
Tmax ([2]; female, nude (nu/nu), mouse, Heart, Nu/nu, IP 35 mg/kg, read-out: Tmax): 0.08 h
half-life ([2]; female, nude (nu/nu), mouse, Heart, Nu/nu, IV 35 mg/kg): 0.36 h
Tmax ([2]; female, nude (nu/nu), mouse, Heart, Nu/nu, IV 35 mg/kg, read-out: Tmax): 4 h
half-life ([2]; female, nude (nu/nu), mouse, Kidneys, Nu/nu, IP 35 mg/kg): 22.4 h
Tmax ([2]; female, nude (nu/nu), mouse, Kidneys, Nu/nu, IP 35 mg/kg, read-out: Tmax): 0.25 h
half-life ([2]; female, nude (nu/nu), mouse, Kidneys, Nu/nu, IV 35 mg/kg): 1.8 h
Tmax ([2]; female, nude (nu/nu), mouse, Kidneys, Nu/nu, IV 35 mg/kg, read-out: Tmax): 0.08 h
half-life ([2]; female, nude (nu/nu), mouse, Liver, Nu/nu, IP 35 mg/kg): 2.52 h
Tmax ([2]; female, nude (nu/nu), mouse, Liver, Nu/nu, IP 35 mg/kg, read-out: Tmax): 0.5 h
half-life ([2]; female, nude (nu/nu), mouse, Liver, Nu/nu, IV 35 mg/kg): 3.39 h
Tmax ([2]; female, nude (nu/nu), mouse, Liver, Nu/nu, IV 35 mg/kg, read-out: Tmax): 2 h
half-life ([2]; female, nude (nu/nu), mouse, Lungs, Nu/nu, IP 35 mg/kg): 1.04 h
Tmax ([2]; female, nude (nu/nu), mouse, Lungs, Nu/nu, IP 35 mg/kg, read-out: Tmax): 1 h
half-life ([2]; female, nude (nu/nu), mouse, Lungs, Nu/nu, IV 35 mg/kg): 2 h
Tmax ([2]; female, nude (nu/nu), mouse, Lungs, Nu/nu, IV 35 mg/kg, read-out: Tmax): 0.25 h
half-life ([2]; female, nude (nu/nu), mouse, Muscle, Nu/nu, IP 35 mg/kg): 2.97 h
Tmax ([2]; female, nude (nu/nu), mouse, Muscle, Nu/nu, IP 35 mg/kg, read-out: Tmax): 0.25 h
half-life ([2]; female, nude (nu/nu), mouse, Muscle, Nu/nu, IV 35 mg/kg): 2.28 h
Tmax ([2]; female, nude (nu/nu), mouse, Muscle, Nu/nu, IV 35 mg/kg, read-out: Tmax): 0.08 h
half-life ([2]; female, nude (nu/nu), mouse, Plasma, Nu/nu, IP 35 mg/kg): 2.65 h
half-life ([2]; female, nude (nu/nu), mouse, Plasma, Nu/nu, IV 35 mg/kg): 0.6 h
half-life ([2]; female, nude (nu/nu), mouse, Spleen, Nu/nu, IP 35 mg/kg): 0.81 h
Tmax ([2]; female, nude (nu/nu), mouse, Spleen, Nu/nu, IP 35 mg/kg, read-out: Tmax): 24 h
half-life ([2]; female, nude (nu/nu), mouse, Spleen, Nu/nu, IV 35 mg/kg): 1.4 h
Tmax ([2]; female, nude (nu/nu), mouse, Spleen, Nu/nu, IV 35 mg/kg, read-out: Tmax): 2 h
dose recovered as parental KCN1 from urine ([2]; nude mice, 35 mg/kg I.P.): less than 0.5%
dose recovered as parental KCN1 from urine ([2]; nude mice, 35 mg/kg intravenously): less than 1%
detection in brain [2, 4]: could not be detected after 6 h
time detectable in heart, lungs, liver, spleen, kidneys and skeletal muscle [2, 4]: at least 24 h
time plasma concentration still detectable ([2]; nude mice, I.P. 35 mg/kg): ≥ 24 h
time plasma concentration still detectable ([2]; nude mice, I.V. 35 mg/kg): at least 6 h
time still detectable at a low level ([3]; after intraperitoneal dosing (data not shown)): at least five days
initial dose of parental compound recovered in feces ([3]; I.P. injection (data not shown)): Approximately 1%
initial dose of parental compound recovered in feces ([3]; I.V. injection (data not shown)): less than 1%
